Test system: Cryptococcus neoformans
Assay: Agar dilution assay (MIC) against an expanded panel of 84 Cryptococcus neoformans strains
Assay type: cell-based
Conditions: 84 Cryptococcus neoformans isolates, yeast nitrogen base dextrose agar, 0.008 to 16.0 μg/ml
Method: Such activity may be illustrated with test results against Cryptococcus neoformans employing yeast nitrogen base dextrose agar medium. In carrying out the assay, Compound Ia' was solubilized in 10 percent dimethyl sulfoxide (DMSO) supplemented with one drop of Tween 20. Twofold dilutions were made with sterile distilled water/10 percent DMSO to obtain final drug concentrations in the agar dilution assay plates ranging from 0.008 to 16.0 μg/ml against an expanded panel of 84 Cryptococcus neoformans strains.
The minimum inhibitory concentration against the expanded panel of 84 Cryptococcus neoformans isolates may be summarized as follows: […]

Compound: COC(=O)C(C)CNC(=O)C(Cc1ccc(OC)c(Cl)c1)NC(=O)C=CCC(OC(=O)C(O)CC(C)C)C(C)C1OC1c1ccccc1 (stereo not drawn) [Compound Ia', 5-[[2-[[2-(methoxycarbonyl)propyl]amino]-1-[(3-chloro-4-methoxyphenyl)methyl]-2-oxoethyl]amino]-5-oxo-1-[1-(3-phenyloxiranyl)ethyl]-3-pentenyl 2-hydroxy-4-methylpentanoate]
- MIC50 (concentration at which 50% of the strains were inhibited): 8.0 µg/mL
- MIC90 (concentration at which 90% of the strains were inhibited): 8.0 µg/mL
- G-MIC (geometric means of MIC) (10 percent DMSO/Tween 20): > 6.11 µg/mL

— patent US4868208A, “Antifungal agent and method” (Merck & Co., Inc., priority 1988, dated 1989)
